Legend:
[1] = biological target: T1, aggregated tau in 3T6 cells expressing htau40 (IPTG-inducible) and truncated tau (Homo sapiens, UniProt P10636); assay: Tissue culture cell assay: uptake and labelling of aggregated tau; assay type: cell-based, mouse; details: induced cells
T1 construct: express both full-length human tau protein (htau40); truncated tau (295-390, dGA); expressed in transfected cells; host or cells: murine 3T6 fibroblasts; htau40 in pOPRSVI (IPTG-inducible), dGA in pcDNA3.1 (constitutive)
Protocol: The aggregated tau was prepared in cell lines as described in WO02/055720. In essence, fibroblast cells (3T6) express full-length tau (“T40”) under control of an inducible promotor, and low constitutive levels of the PHF-core tau fragment (12 kD fragment). Then T40 expression is induced, it undergoes aggregation-dependent truncation within the cell, N-terminally at ˜αα295 and C-terminally at ˜αα390, thereby producing higher levels of the 12 kD PHF-core domain fragment.
The tissue culture assay uses 3T6 mouse cells engineered to express both full-length human tau protein (htau40) under the control of an inducible promoter (pOPRSVI), and to express low levels of truncated tau (295-390, dGA) under the control of a constitutive promoter (pcDNA3.1). Expression of large quantities of htau40 is induced by the addition of isopropyl β-D-1-thiogalactopyranoside (IPTG; 10-50 μM), which in turn leads to the production of additional truncated tau by a process in which aggregation and processing of the full-length tau occurs in the presence of dGA tau which acts as template. The aggregation of tau in this assay is depicted in FIG. 1.
Murine 3T6 fibroblast cells were grown to ˜80% confluency in a 10-cm dish, before splitting into 2×24 well plates, and allowed to grow for a further 24 hrs when IPTG was added. After overnight incubation, the medium was removed and the cells were washed with PBS.
A similar experiment was performed with cells seeded on to cover slips in a 24-well plate. After 24 hrs, the cells were incubated with ligand for 20 hrs in the presence or absence of IPTG (100 μM) i.e. induced or uninduced.

[2] = Biodistribution assay of 18F-labelled ligand; assay type: in vivo, mouse; details: mice
Protocol: Biodistribution and excretion studies for ligands were performed in male NMRI mice (body weight app. 30 g; 3 animals per time point). The animals were kept under normal laboratory conditions at a temperature of 22±2° C. and a dark/light rhythm of 12 hours. Food and water were provided ad libitium. During an acclimatisation period of at least 3 days before the beginning of the study, animals were clinically examined to ascertain the absence of abnormal clinical signs. At 2, 5, 30, 60 and 120 min post intravenous injection via the tail vein of ca. 150 kBq in 100 μl of the test compound, urine and faeces were quantitatively collected. At the same time points, animals were anaesthetised with isoflurane, sacrificed by decapitation and the following organs and tissues were removed for the determination of radioactivity using a gamma-counter: spleen, liver, kidney, lung, bone, heart, brain, fat, thyroid, muscle, skin, blood, tail, stomach (without content), testicle, intestine (with content), pancreas, adrenals, skull, and the remaining body. For the analysis, the decay corrected percentage of the injected dose per tissue weight (% ID/g±standard deviation) was calculated.

Oc1ccc(/N=N/c2ccc(-c3nc4ccc(O)cc4s3)cc2)c(C(F)(F)F)c1 [LS-T213, 4-{(E)-[4-(6-Hydroxy-1,3-benzothiazol-2-yl)phenyl]diazenyl}-3-(trifluoromethyl)phenol]
binding to aggregated tau within cells, fluorescence microscopy [1]: selective binding

COc1ccc2nc(-c3ccc(NC(=O)c4ccc([18F])nc4)cc3)sc2c1 [SKT04-137, 6-[^18F]Fluoro-N-[4-(6-methoxy-benzothiazol-2-yl)-phenyl]-nicotinamide]
% ID/g ([2]; Adrenals, 2 min post i.v.): 10.84 % ID/g
% ID/g ([2]; Adrenals, 5 min post i.v.): 9.59 % ID/g
% ID/g ([2]; Adrenals, 30 min post i.v.): 5.62 % ID/g
% ID/g ([2]; Adrenals, 60 min post i.v.): 2.83 % ID/g
% ID/g ([2]; Adrenals, 120 min post i.v.): 1.04 % ID/g
% ID/g ([2]; Blood, 2 min post i.v.): 1.69 % ID/g
% ID/g ([2]; Blood, 5 min post i.v.): 1.12 % ID/g
% ID/g ([2]; Blood, 30 min post i.v.): 0.74 % ID/g
% ID/g ([2]; Blood, 60 min post i.v.): 0.39 % ID/g
% ID/g ([2]; Blood, 120 min post i.v.): 0.16 % ID/g
% ID/g ([2]; Bone, 2 min post i.v.): 1.54 % ID/g
% ID/g ([2]; Bone, 5 min post i.v.): 1.50 % ID/g
% ID/g ([2]; Bone, 30 min post i.v.): 1.20 % ID/g
% ID/g ([2]; Bone, 60 min post i.v.): 1.96 % ID/g
% ID/g ([2]; Bone, 120 min post i.v.): 1.65 % ID/g
% ID/g ([2]; Brain, 2 min post i.v.): 3.99 % ID/g
% ID/g ([2]; Brain, 5 min post i.v.): 3.54 % ID/g
% ID/g ([2]; Brain, 30 min post i.v.): 3.19 % ID/g
% ID/g ([2]; Brain, 60 min post i.v.): 1.43 % ID/g
% ID/g ([2]; Brain, 120 min post i.v.): 0.60 % ID/g
% ID/g ([2]; Fat, 2 min post i.v.): 1.25 % ID/g
% ID/g ([2]; Fat, 5 min post i.v.): 1.57 % ID/g
% ID/g ([2]; Fat, 30 min post i.v.): 7.21 % ID/g
% ID/g ([2]; Fat, 60 min post i.v.): 4.51 % ID/g
% ID/g ([2]; Fat, 120 min post i.v.): 1.76 % ID/g
% ID/g ([2]; Heart, 2 min post i.v.): 6.68 % ID/g
% ID/g ([2]; Heart, 5 min post i.v.): 3.72 % ID/g
% ID/g ([2]; Heart, 30 min post i.v.): 1.62 % ID/g
% ID/g ([2]; Heart, 60 min post i.v.): 0.81 % ID/g
% ID/g ([2]; Heart, 120 min post i.v.): 0.39 % ID/g
% ID/g ([2]; Intestine, 2 min post i.v.): 1.99 % ID/g
% ID/g ([2]; Intestine, 5 min post i.v.): 2.45 % ID/g
% ID/g ([2]; Intestine, 30 min post i.v.): 9.36 % ID/g
% ID/g ([2]; Intestine, 60 min post i.v.): 17.43 % ID/g
% ID/g ([2]; Intestine, 120 min post i.v.): 20.08 % ID/g
% ID/g ([2]; Kidney, 2 min post i.v.): 9.60 % ID/g
% ID/g ([2]; Kidney, 5 min post i.v.): 7.10 % ID/g
% ID/g ([2]; Kidney, 30 min post i.v.): 6.38 % ID/g
% ID/g ([2]; Kidney, 60 min post i.v.): 3.78 % ID/g
% ID/g ([2]; Kidney, 120 min post i.v.): 1.49 % ID/g
% ID/g ([2]; Liver, 2 min post i.v.): 11.52 % ID/g
% ID/g ([2]; Liver, 5 min post i.v.): 13.30 % ID/g
% ID/g ([2]; Liver, 30 min post i.v.): 7.03 % ID/g
% ID/g ([2]; Liver, 60 min post i.v.): 4.26 % ID/g
% ID/g ([2]; Liver, 120 min post i.v.): 2.41 % ID/g
% ID/g ([2]; Lung, 2 min post i.v.): 6.91 % ID/g
% ID/g ([2]; Lung, 5 min post i.v.): 4.55 % ID/g
% ID/g ([2]; Lung, 30 min post i.v.): 1.83 % ID/g
% ID/g ([2]; Lung, 60 min post i.v.): 0.97 % ID/g
% ID/g ([2]; Lung, 120 min post i.v.): 0.40 % ID/g
% ID/g ([2]; Muscle, 2 min post i.v.): 1.98 % ID/g
% ID/g ([2]; Muscle, 5 min post i.v.): 1.80 % ID/g
% ID/g ([2]; Muscle, 30 min post i.v.): 1.11 % ID/g
% ID/g ([2]; Muscle, 60 min post i.v.): 0.63 % ID/g
% ID/g ([2]; Muscle, 120 min post i.v.): 0.20 % ID/g
% ID/g ([2]; Pancreas, 2 min post i.v.): 4.34 % ID/g
% ID/g ([2]; Pancreas, 5 min post i.v.): 3.17 % ID/g
% ID/g ([2]; Pancreas, 30 min post i.v.): 1.74 % ID/g
% ID/g ([2]; Pancreas, 60 min post i.v.): 1.11 % ID/g
% ID/g ([2]; Pancreas, 120 min post i.v.): 0.33 % ID/g
% ID/g ([2]; Skin, 2 min post i.v.): 1.01 % ID/g
% ID/g ([2]; Skin, 5 min post i.v.): 1.28 % ID/g
% ID/g ([2]; Skin, 30 min post i.v.): 1.87 % ID/g
% ID/g ([2]; Skin, 60 min post i.v.): 1.11 % ID/g
% ID/g ([2]; Skin, 120 min post i.v.): 0.45 % ID/g
% ID/g ([2]; Skull, 2 min post i.v.): 1.93 % ID/g
% ID/g ([2]; Skull, 5 min post i.v.): 1.28 % ID/g
% ID/g ([2]; Skull, 30 min post i.v.): 0.95 % ID/g
% ID/g ([2]; Skull, 60 min post i.v.): 1.44 % ID/g
% ID/g ([2]; Skull, 120 min post i.v.): 1.04 % ID/g
% ID/g ([2]; Spleen, 2 min post i.v.): 2.95 % ID/g
% ID/g ([2]; Spleen, 5 min post i.v.): 2.44 % ID/g
% ID/g ([2]; Spleen, 30 min post i.v.): 1.19 % ID/g
% ID/g ([2]; Spleen, 60 min post i.v.): 0.60 % ID/g
% ID/g ([2]; Spleen, 120 min post i.v.): 0.30 % ID/g
% ID/g ([2]; Stomach, 2 min post i.v.): 3.67 % ID/g
% ID/g ([2]; Stomach, 5 min post i.v.): 2.28 % ID/g
% ID/g ([2]; Stomach, 30 min post i.v.): 2.48 % ID/g
% ID/g ([2]; Stomach, 60 min post i.v.): 2.17 % ID/g
% ID/g ([2]; Stomach, 120 min post i.v.): 0.98 % ID/g
% ID/g ([2]; Tail, 2 min post i.v.): 15.89 % ID/g
% ID/g ([2]; Tail, 5 min post i.v.): 7.40 % ID/g
% ID/g ([2]; Tail, 30 min post i.v.): 3.74 % ID/g
% ID/g ([2]; Tail, 60 min post i.v.): 7.70 % ID/g
% ID/g ([2]; Tail, 120 min post i.v.): 4.93 % ID/g
% ID/g ([2]; Testes, 2 min post i.v.): 0.97 % ID/g
% ID/g ([2]; Testes, 5 min post i.v.): 1.10 % ID/g
% ID/g ([2]; Testes, 30 min post i.v.): 1.68 % ID/g
% ID/g ([2]; Testes, 60 min post i.v.): 1.18 % ID/g
% ID/g ([2]; Testes, 120 min post i.v.): 0.61 % ID/g
% ID/g ([2]; Thyroid, 2 min post i.v.): 3.97 % ID/g
% ID/g ([2]; Thyroid, 5 min post i.v.): 2.59 % ID/g
% ID/g ([2]; Thyroid, 30 min post i.v.): 1.06 % ID/g
% ID/g ([2]; Thyroid, 60 min post i.v.): 0.59 % ID/g
% ID/g ([2]; Thyroid, 120 min post i.v.): 0.37 % ID/g
brain washout ([2]; i.v., 60 min vs 2 min): 64%
brain uptake ([2]; i.v., after 2 min): 3.99 % injected dose/g tissue
brain level ([2]; i.v., after 60 min): 1.43 % injected dose/g tissue
